The values below come from PubChem BioAssay (NCI).

Common to all, as to test: NCI tumour cell line growth inhibition, 48 h
Experiment [1] relates to A549 NSCLC.
Experiment [2] has as its system ACHN renal.
The subject of experiment [3] is SK-OV-3 ovarian.
Experiment [4] deals with MOLT-4 leukemia.
Experiment [5] concerns HCT-116 colon.
The subject of experiment [6] is SNB-75 CNS.
In experiment [7] the test system is SNB-19 CNS.
Experiment [8] relates to CAKI-1 renal.
The test system of experiment [9] is EKVX NSCLC.

SMILES strings stand for the structures. Where “and” joins values, the source holds several entries; their conditions need not be identical. Equal values may be shown once.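 Five compound concentrations were applied to cells in 96-well plates for 48 hours; endpoints were derived by simple linear interpolation of the resulting dose-response curve. GI50 is the concentration that inhibits growth by half. TGI: total growth inhibition.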

As for `CCc1cccc(C(C)C)c1C1C(=O)C(=O)N(c2nc3ccccc3s2)C(=O)C1=O`, the TGI in experiment [1], in experiment [2], in experiment [3], in experiment [4], in [5] and in experiment [6] was over 100 µM each time. In addition, the TGI in experiment [7], in [8] and in experiment [9] was over 100 µM throughout.

For the compound `S=C(N/N=C/c1ccccc1)NC1CC(c2ccccc2)Oc2ccccc21` (stereo unspecified), the TGI in experiment [1] is over 100 µM; in [3] it was over 100 µM; in experiment [5], over 100 µM; in experiment [6], 31.3 µM; in [7], over 100 µM; in [8], over 100 µM. The compound further displayed a TGI in [9] of over 100 µM.

Take `COc1ccc(C2Oc3cc(OC)c(O)cc3[C@@H]2C)cc1` (stereo partly specified): the TGI in experiment [1] was over 100 µM; in experiment [2], 33.2 µM; in experiment [3], over 100 µM; in experiment [4] it was 42.8 µM; in experiment [5] it was 25.9 µM; in [6] it was 96.6 µM. The TGI was 19.5 µM in experiment [7], 96.2 µM in [8] and over 100 µM in experiment [9].

On to `Nc1n[nH]c(=O)c2c1c(Br)cn2C1OC(CO)C(O)C1O` (stereo unspecified), for which the TGI was over 100 µM in experiment [1]; over 100 µM in experiment [2]; over 100 µM in [3]; 9.3 µM in experiment [4]; over 40.6 µM in experiment [5]; 11.2 µM in [6]. In addition, the TGI in [7] is over 100 µM; in experiment [8] it was over 100 µM; in experiment [9], 39.5 µM.

For the compound `CC(=O)/C=C\C(=O)NNS(=O)(=O)c1ccc(C)cc1`, the TGI in experiment [1], in [2], in experiment [3], in [4], in [5] and in [6] was over 100 µM each time. The TGI in [7], in [8] and in [9] was over 100 µM throughout.

Consider `CC(=O)OC12CCCCC1C1(CCCC1)NC2=O` (stereo unspecified), for which the TGI in experiment [1], in experiment [2], in [3], in experiment [4], in experiment [5] and in [6] was over 100 µM throughout. For the same compound, the TGI in experiment [7] and in experiment [9] was over 100 µM throughout.

For `CC/C(=C(\c1ccccc1)c1ccc(OCC[N+](C)(C)C)cc1)c1ccccc1`, the TGI in [1] was determined as 35.3 µM; in experiment [2], 34.6 µM; in experiment [3] it was 34.5 µM; in experiment [4], 36.4 µM; in [5], 31.7 µM; in [6], 23.9 µM. For the same compound, the TGI in experiment [7] was found to be 37.1 µM; in experiment [8] it was 32.2 µM; in experiment [9], 33 µM.

With `O=C1[C@@H]2C3C=CC([C@H]4C(=O)N(CO)C(=O)[C@@H]34)[C@@H]2C(=O)N1CO`, the TGI in experiment [1] was over 100 µM; in experiment [2] it was over 83.5 µM; in experiment [3], over 100 µM; in [4] it was over 100 µM; in [5], over 57.4 µM; in [6], over 100 µM. For the same compound, the TGI in experiment [7], in [8] and in [9] was over 100 µM in each case.

Take `COC(=O)c1c(OC(=O)c2ccccc2)noc1CC(=O)OC1C=CCCC1` (stereo unspecified): the TGI in experiment [1], in [2], in [3], in [4], in experiment [5] and in [6] was over 100 µM throughout. The TGI in [7] and in experiment [8] was over 100 µM each time.

For the compound `COc1cccc2c1C(=N)c1c(O)c3c(c(O)c1C2=O)C[C@@](O)(C(C)=O)C[C@@H]3OC1CC(N)C(O)C(C)O1` (stereo partly specified), the TGI is 0.926 µM and 1.46 µM and 1.01 µM in experiment [1]; 1.85 µM and 4.8 µM and 13.6 µM in [3]; 1.77 µM and 2.53 µM and 10.4 µM in experiment [5]; 1.37 µM and 1.03 µM and 4.86 µM in experiment [8]; 3.82 µM and 7.64 µM and 2.29 µM in experiment [9]. Moreover, in experiment [2], the GI50 was 0.472 µM.

Consider `C[N+](C)(C)CC(=O)N/N=C(\C(=O)Nc1ccc(Cl)cc1)C1C(=O)N(c2ccccc2)N=C1N` (stereo unspecified), for which the TGI in experiment [1], in experiment [2], in experiment [3], in [4], in experiment [5] and in [6] was over 100 µM throughout. The TGI in experiment [7], in experiment [8] and in experiment [9] was over 100 µM each time.

With `COc1ccccc1C1C(Cl)C(=O)N1NC(=O)Cc1ccccc1` (stereo unspecified), the TGI in experiment [1], in [2], in [3], in experiment [4], in experiment [5] and in experiment [6] was over 100 µM in each case. For the same compound, the TGI in experiment [7], in [8] and in experiment [9] was over 100 µM throughout.

In the case of `O=[N+]([O-])c1ccc(-c2ccc(C3=Nn4c(nnc4-c4ccc(Cl)cc4)SC3)o2)cc1`, the TGI was over 100 µM in experiment [1]; over 100 µM in experiment [2]; over 100 µM in experiment [3]; over 100 µM in experiment [4]; over 100 µM in [5]; over 65.3 µM in [6]. In addition, the TGI in experiment [7] is over 76.8 µM; in experiment [8] it was over 100 µM; in experiment [9], over 100 µM.

In the case of `CCN(CC)CC(C(=O)Nc1c(C)cccc1C)/C(C)=N/NC(N)=S` (stereo unspecified), the TGI in experiment [1], in experiment [2], in experiment [3], in experiment [4], in experiment [5] and in [6] was over 100 µM throughout. This compound also came in with a TGI in experiment [9] of over 100 µM.

Take `CCOc1ccccc1Nc1nc(C)c(C(=O)CC(=O)C(=O)Nc2ccccc2)s1`: the TGI is over 100 µM in experiment [1]; over 100 µM in experiment [2]; over 100 µM in experiment [3]; 78.3 µM in [4]; over 100 µM in experiment [5]; 88.6 µM in experiment [6]. Further, the TGI in experiment [7], in experiment [8] and in experiment [9] was over 100 µM each time.

As to `COc1ccc2nccc(C3OC(=O)N4CCC(=O)CC34)c2c1` (stereo unspecified), the TGI in [1], in experiment [2], in [4], in experiment [5], in experiment [7] and in experiment [8] was over 100 µM throughout. Also, in [9], the TGI was over 100 µM.

With `COc1cc(C2C(C(=O)Nc3ccc(Cl)c(Cl)c3)=C(C)NC(C)=C2C(=O)Nc2ccc(Cl)c(Cl)c2)ccc1O`, the TGI in [1] was 31.5 µM; in [2] it was 32.9 µM; in [3], 34.5 µM; in experiment [4] it was 26.9 µM; in experiment [6], 34.5 µM; in experiment [7], 25.6 µM. For the same compound, the figures for the TGI in experiment [8] and in [9] were 34.1 µM and 28.1 µM, respectively.

For the compound `CCCCCC1C2C(=O)NC(=O)C1C(=O)NC2=O` (stereo unspecified), the TGI in [1], in experiment [2], in experiment [3], in [4], in experiment [6] and in [7] was over 100 µM in each case. The TGI in [8] and in experiment [9] was over 100 µM each time.

As to `Cc1nc2c(=O)n(C)c(=O)nc-2n(-c2ccc(Cl)cc2)c1C`, the TGI in [1], in experiment [2], in experiment [3], in experiment [6], in experiment [7] and in experiment [8] was over 100 µM in each case. Besides, in experiment [9], the TGI is over 100 µM.

With `CC1CCCC2(O1)OC1CC(=O)OC1C1=C2C(=O)c2ccccc2C1=O` (stereo unspecified), the TGI in experiment [1] turned out to be 35.5 µM; in experiment [2], 15 µM; in [3] it was 30 µM; in experiment [4], 4.09 µM; in [6], 23.7 µM; in experiment [7], 30.5 µM. In addition, the TGI in experiment [8] came out at 7.13 µM; in [9] it was 14.2 µM.

As for `O=C1OC2C(O)COC2(OCc2c[nH]c3ccccc23)C1O` (stereo unspecified) (tested in a mixture with another compound), the TGI in [1], in [3], in experiment [4], in experiment [5], in experiment [6] and in experiment [7] was over 100 µM throughout. In addition, the TGI in experiment [8] and in experiment [9] was over 100 µM in each case.

As for `O=C1c2ccccc2CC1C1(O)C(=O)Nc2c(Cl)cc(Cl)cc21` (stereo unspecified), the TGI in experiment [1], in [2], in experiment [3], in experiment [4], in experiment [6] and in experiment [7] was over 100 µM throughout. Also, the TGI in [8] and in experiment [9] was over 100 µM each time.

For `COCC(O)CN1C(N)=NC(O)C1O` (stereo unspecified), the TGI in experiment [1], in [2], in experiment [6], in experiment [7], in [8] and in experiment [9] was over 100 µM in each case.
